Experimental data as given in patent US6239131A, “1,5 Benzodiazepine derivatives” (Zeria Pharmaceutical Co., Ltd., priority 1996, dated 2001).
pKi: −log10 of the molar value. Read-outs that look alike come from different tables or passages of the source.

Tests used:
CCK-A receptors = biological target: T1, CCK-A receptors (Cavia porcellus, UniProt Q63931); experiment: Measurement of Binding Affinity for CCK-A Receptors; design: species or system Hartley-strain guinea pig; conditions: inhibition of specific [3H]L-364,718 (0.2 nM) binding; guinea pig pancreas; 25° C., 2 hours; pH 6.5
T1 construct: Pancreases were removed from Hartley-strain guinea pigs, the pancreases were homogenized; from tissue; host or cells: pancreas of Hartley-strain guinea pigs, crude membrane pellet
T1 sequence (Q63931 1-430): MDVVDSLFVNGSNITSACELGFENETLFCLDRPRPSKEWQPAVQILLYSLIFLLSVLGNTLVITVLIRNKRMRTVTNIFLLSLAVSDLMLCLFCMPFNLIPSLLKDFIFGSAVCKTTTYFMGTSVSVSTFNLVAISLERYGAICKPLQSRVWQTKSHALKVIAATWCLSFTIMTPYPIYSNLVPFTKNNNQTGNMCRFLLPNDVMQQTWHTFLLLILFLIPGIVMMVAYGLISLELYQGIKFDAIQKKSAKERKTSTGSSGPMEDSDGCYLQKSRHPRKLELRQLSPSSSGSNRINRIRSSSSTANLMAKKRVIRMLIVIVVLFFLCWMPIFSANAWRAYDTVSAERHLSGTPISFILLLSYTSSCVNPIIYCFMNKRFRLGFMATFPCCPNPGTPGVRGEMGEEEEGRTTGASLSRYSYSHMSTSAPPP
Protocol: Pancreases were removed from Hartley-strain guinea pigs, the pancreases were homogenized in 40 volumes of 10 mM PIPES buffer (pH 6.5, which hereinafter be abbreviated as "solvent") containing 1 mM EGTA, 30 mM MgCl2, 0.02% bacitracin, 0.02% soybean trypsin inhibitor and 0.3 M sucrose. The homogenate was filtrated through gauze and centrifuged at 50000×g for 10 minutes. Solvent was added to the pellet and recentrifuged as above. The final pellet thus obtained was homogenized in 40 volumes of solvent and used as the receptor preparation.
Binding assay was measured as follows. Fifty μl of [^3 H]L-364, 718 (at the final concentration of 0.2 nM) and 900 μl of the receptor preparation (50 μg protein/tube) were added to 50 μl of solvent, or L-364, 718 (1 μM) or a test compound. This mixture was incubated at 25° C. for 2 hours. After the reaction, the mixture was filtrated through Whatman GF/B filter presoaked in 0.1% BSA (bovine serum albumin). The filter was washed with 3 ml of ice-cold 10 mM PIPES buffer (pH 6.5) three times, immediately after the filtration. The filter was soaked in the ACS-II scintillation cocktail for one day and radioactivity was measured using a liquid scintillation counter. Non-specific binding was defined as the radioactivity in the presence of 1 μM L-364, 718. Specific binding was defined as the difference between total binding (used solvent without L-364, 718) and non-specific binding. lnhibitor dissociation constant (Ki) of each test compound was determined from the inhibition of specific [^3 H]L-364, 718 binding.

CCK-B receptors = biological target: T2, CCK-B receptors (Cavia porcellus, UniProt H0VZC5); experiment: Measurement of Binding Affinity for CCK-B Receptors; design: species or system Hartley-strain guinea pig
T2 construct: Cerebral cortices were removed from Hartley-strain guinea pigs, the cerebral cortices were homogenized; from tissue; host or cells: cerebral cortex of Hartley-strain guinea pigs, crude membrane pellet
T2 sequence (H0VZC5 1-426): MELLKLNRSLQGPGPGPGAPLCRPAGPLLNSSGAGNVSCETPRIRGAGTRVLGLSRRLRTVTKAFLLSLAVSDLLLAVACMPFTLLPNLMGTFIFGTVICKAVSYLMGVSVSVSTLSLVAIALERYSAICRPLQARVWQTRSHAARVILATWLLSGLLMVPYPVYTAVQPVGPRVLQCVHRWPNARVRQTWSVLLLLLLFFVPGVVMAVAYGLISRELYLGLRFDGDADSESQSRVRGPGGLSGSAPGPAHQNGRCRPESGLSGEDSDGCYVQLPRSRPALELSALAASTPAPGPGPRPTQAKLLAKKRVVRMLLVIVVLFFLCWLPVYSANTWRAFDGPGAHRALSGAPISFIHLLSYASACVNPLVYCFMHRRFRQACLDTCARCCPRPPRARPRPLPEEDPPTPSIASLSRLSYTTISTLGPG
Protocol: Cerebral cortices were removed from Hartley-strain guinea pigs, the cerebral cortices were homogenized in 50 volumes of 50 mM Tris-HCl buffer (pH7.4) and centrifuged at 50000×g for 10 minutes. The Tris-HCl buffer was added to the pellet and recentrifuged as above two times. The final pellet was rehomogenized in 10 mM HEPES buffer (pH 6.5, which hereinafter be abbreviated as "solvent") containing 5 mM MgCl2, 1 mM EGTA, 0.25 mg/ml bacitracin and 130 mM NaCl, and used as the receptor preparation.
Binding assay was measured as follows. Fifty μl of [^3 H]CCK-8 (at the final concentration of 1.0 nM) and 900 μl of the receptor preparation (800 μg protein/tube) were added to 50 μl of either solvent, CCK-8 (1 μM) or a test compound. These ware reacted at 25° C. for 2 hours. After the reaction, the mixture was filtrated through Whatman GF/B filter presoaked in 0.1% BSA. The filter was washed with 3 ml of ice-cold 50 mM Tris-HCl buffer (pH 7.4) four times, immediately after the filtration. The filter was soaked in the ACS-II scintillation cocktail for a day and radioactivity was measured using a liquid scintillation counter. Non-specific binding was defined as the radioactivity in the presence of 1 μM CCK-8. Specific binding was defined as the difference between total binding (used solvent without CCK-8) and non-specific binding. Inhibitor dissociation constant (Ki) of each test compound was determined from the inhibition of specific [^3 H]CCK-8 binding.

[1] = system: pentagastrin-stimulated acid secretion; experiment: Measurement of Inhibition of Pentagastrin-stimulated Acid Secretion; assay type: in vivo, male Sprague-Dawley (SD)-strain rats; conditions: intraduodenal, rat, acid output from 1 to 4 hours after administration, pentagastrin 15 μg/kg/hr
Protocol: Male Sprague-Dawley (SD)-strain rats were used. Each rat was operated to ligate the pylorus, and equip with a duodenal catheter and gastric fistula under a ether anesthesia. After the operation, each rat was placed in a Bollman-type cage and continuously infused pentagastrin (15 μg/kg/hr) through the tail vein. Test compounds were suspended in 0.5% aqueous sodium carboxymethylcellulose (which hereinafter be abbreviated as "vehicle"). Vehicle or test compound was administered through the intraduodenal catheter 1 hour after the beginning of pentagastrin infusion. Acidity of the collected gastric juice was measured by an automatic titillation device. Acid output was determined by multiplying the volume by the acidity of gastric juice. […] [formula]

[2] = inhibition of specific [3H]CCK-8 (1.0 nM) binding, guinea pig cerebral cortex, 25° C., 2 hours, pH 6.5, read-out: Ki (CCK-B receptors)

pKi (CCK-A receptors) | pKi (CCK-B receptors; [2]) | SMILES | inhibition in vivo at 1 mg/kg [1] | inhibition in vivo at 3 mg/kg [1] | inhibition in vivo at 30 mg/kg [1] | pKi (CCK-B receptors)
7.78 | 9.96 | CC(C)(C)C(=O)CN1C(=O)C(NC(=O)Nc2cccc(SCC(=O)O)c2)CN(c2ccccc2)c2ccccc21 (single isomer, unassigned; (-)) [Example 88 (-form)] | 68.4% | – | – | –
6.89 | 9.23 | Cc1ccc2c(c1)N(CC(=O)c1ccccc1C)C(=O)C(NC(=O)Nc1cccc(C(=O)O)c1)CN2C(=O)c1cccs1 (stereo not drawn) [Example 104, 3-[3-[1-(2-toluoylmethyl)-2-oxo-5-(2-thenoyl)-8-methyl-1,3,4,5-tetrahydro-2H-1,5-benzodiazepin-3-yl]ureido]benzoic acid] | 58% | – | – | –
6.52 | 9.11 | CC(C)(C)C(=O)CN1C(=O)C(NC(=O)Nc2cccc(C(=O)O)c2)CN(c2ccccc2)c2ccccc21 (racemic) [Example 70 (racemate), 3-[3-(1-tert-butylcarbonylmethyl-2-oxo-5-phenyl-1,3,4,5-tetrahydro-2H-1,5-benzodiazepin-3-yl)ureido]benzoic acid] | – | 76.5% | – | –
6.46 | 8.74 | Cc1ccc2c(c1)N(CC(=O)c1ccccc1C)C(=O)C(NC(=O)Nc1cccc(C(=O)O)c1)CN2C(=O)CC(C)(C)C (stereo not drawn) [Example 109, 3-[3-[1-(2-toluoylmethyl)-2-oxo-5-(3,3-dimethylbutanoyl)-8-methyl-1,3,4,5-tetrahydro-2H-1,5-benzodiazepin-3-yl]ureido]benzoic acid] | 54% | – | – | –
6.92 | 8.86 | Cc1ccc2c(c1)N(CC(=O)c1ccccc1C)C(=O)C(NC(=O)Nc1cccc(C(=O)O)c1)CN2C(=O)C1CCCC1 (stereo not drawn) [Example 87, 3-[3-[1-(2-toluoylmethyl)-2-oxo-5-cyclopentylcarbonyl-8-methyl-1,3,4,5-tetrahydro-2H-1,5-benzodiazepin-3-yl]ureido]benzoic acid] | – | – | 80.1% | –
6.30 | 9.12 | Cc1ccc2c(c1)N(CC(=O)c1ccccc1C)C(=O)C(NC(=O)Nc1ccc(C)c(C(=O)O)c1)CN2C(=O)CC(C)(C)C (stereo not drawn) [Example 120, 5-[3-[1-(2-toluoylmethyl)-2-oxo-5-(3,3-dimethylbutanoyl)-8-methyl-1,3,4,5-tetrahydro-2H-1,5-benzodiazepin-3-yl]ureido]-2-methylbenzoic acid] | – | – | 88.3% | –
6.61 | 9.85 | CC(C)(C)C(=O)CN1C(=O)C(NC(=O)Nc2cccc(SCC(=O)O)c2)CN(c2ccccc2)c2ccccc21 (stereo not drawn) [Example 33, 3-[3-(1-tert-butylcarbonylmethyl-2-oxo-5-phenyl-1,3,4,5-tetrahydro-2H-1,5-benzodiazepin-3-yl)ureido]phenylthioacetic acid] | – | 77.2% | – | –
6.59 | 9.44 | CC(C)(C)C(=O)CN1C(=O)C(NC(=O)Nc2cccc(C(=O)O)c2)CN(c2ccccc2)c2ccccc21 (single isomer, unassigned; (-)) [Example 70 (-form), (-)-3-[3-(1-tert-butylcarbonylmethyl-2-oxo-5-phenyl-1,3,4,5-tetrahydro-2H-1,5-benzodiazepin-3-yl)ureido]benzoic acid] | 84.8% | – | – | –
6.33 | 8.95 | CC(C)(C)C(=O)CN1C(=O)C(NC(=O)Nc2cccc(C(=O)O)c2)CN(c2ccccc2F)c2ccccc21 (stereo not drawn) [Example 101, 3-[3-[1-tert-butylcarbonylmethyl-2-oxo-5-(2-fluorophenyl)-1,3,4,5-tetrahydro-2H-1,5-benzodiazepin-3-yl]ureido]benzoic acid] | – | 78% | – | –

SMILES | pKi (CCK-A receptors) | pKi (CCK-B receptors; [2]) | inhibition in vivo at 1 mg/kg [1] | inhibition in vivo at 3 mg/kg [1] | inhibition in vivo at 30 mg/kg [1] | pKi (CCK-B receptors)
Cc1cccc(NC(=O)N[C@@H]2N=C(c3ccccc3)c3ccccc3N(C)C2=O)c1 [L-365, 260, reference compound] | 9.19 | – | – | – | 46.5% | 7.61
